Structures are written as SMILES.

Experiment [1] has as its system primary striatal medium spiny neurons. The experiment in a line: cGMP accumulation in SNP-stimulated striatal cultures. The experiment is classed as cell-based, rat. The settings on record: for EC200 (concentration giving a 2-fold increase in cGMP): concentration yielding a 2-fold increase in cGMP, SNP 100 μM for 2 min after 20 min inhibitor incubation. The method, then:
(§1) Striatal cultures were prepared as previously described (Ventimiglia et al., Eur. J. Neurosci. 7: 213-222, 1995). Briefly, striata (caudate nucleus and putamen) were dissected from E17 rats, dissociated to produce a single cell suspension, and plated at a density of 5×10^4 neurons/well in 96-well plates coated with poly-L-ornithine/laminin (Cat. No. 354657, BD Biosciences, Bedford, Mass.). The cells were plated in Neurobasal medium (Cat. No. 21103-049, Gibco BRL, Grand Island, N.Y.) with B27 supplements (Cat. No. 17504-010, Gibco BRL) and human recombinant brain-derived neurotrophic factor (BDNF) (100 ng/ml) (Cat. No. 248-BD, R & D Systems, Minneapolis, Minn.). Striatal medium spiny neurons comprised 50-60% of cells in these cultures, as confirmed by a GABA immunoreactivity protocol as previously described (Ventimiglia et al., 1995, supra). Expression of PDE10A mRNA in these cultures was confirmed by RNase protection assay, as further described below.
(§2) After approximately four days in vitro, the striatal cells were washed with Ca^2+/Mg^2+ free phosphate buffered saline (pH 7.4) and preincubated for an hour in a buffer containing Ca^2+/Mg^2+ free phosphate buffered saline, 30 mM HEPES (pH 7.4), 1 mM CaCl2, 1 mg/ml dextrose, and 5 mM MgCl2. The striatal cells were then exposed to one of the PDE inhibitors and incubated for 20 min. at 37° C. When measuring cGMP, the neurons were stimulated with sodium nitroprusside (SNP) (100 μM) for two min. after the 20 min. incubation with the PDE inhibitor.
(§3) The cells were lysed using a 9:1 combination of SPA direct screening Assay Buffer (0.05 M acetate with 0.01% sodium azide) and Buffer A (133 mg/ml dodecyltrimethylammonium bromide), and the lysates were frozen on dry ice.

For experiment [2] the test system is unchanged. The experiment in a line: cAMP accumulation in forskolin-stimulated striatal cultures. It counts as cell-based, rat. The settings on record: ratio of EC200 values in striatal cultures. The method, then: as §1, §2, §3
The test system of experiment [3] is PDE10A. The experiment in a line: Papaverine inhibition of PDE10A, SPA-based PDE assay. It counts as biochemical. The method, then: Phosphodiesterases 7-11 were generated from full length recombinant clones transfected into SF9 cells as previously described (Fisher et al., Biochem. Biophys. Res. Comm. 246: 570-577, 1998; Fisher et al., J. Biol. Chem. 273: 15559-15564, 1998b; Soderling et al., PNAS 96: 7071-7076, 1999; Fawcett et al., PNAS 97: 3702-3707, 2000). The enzymes were purified by FPLC from the soluble fraction of cell lysates as described in Boolell et al., supra.
PDE activity was measured using a SPA-based method as previously described (Fawcett et al., 2000). Assays were conducted using a fixed amount of PDE10A enzyme in the presence of varying inhibitor concentrations. […] The final assay volume was adjusted to 100 μl with assay buffer (20 mM Tris-HCl pH 7.4, 5 mM MgCl2, 1 mg/ml bovine serum albumin).
Reactions were initiated with the addition of enzyme. Samples were incubated for 30-60 min. at 30° C. to give <30% substrate turnover and terminated with 50 μl yttrium silicate SPA beads (Amersham) containing 3 mM of the appropriate unlabelled cyclic nucleotide. Plates were re-sealed and shaken for 20 min.; the beads were then allowed to settle for 30 min. in the dark and then counted on a TopCount plate reader (Packard, Meriden, Conn.). Radioactivity units were converted to percent activity as compared to an uninhibited control (100%). […]

The next experiment has as its system PDE1. The settings on record: substrate at 1/3 Km.
Another experiment relates to PDE7. The settings on record: substrate at 1/3 Km.
In experiment [4] the test system is primary striatal medium spiny neurons. Briefly: cGMP accumulation in cultured primary striatal medium spiny neurons. The experiment is classed as cell-based, rat. The settings on record: 100 μM; SNP-stimulated.
The test system is the same in experiment [5]. The experiment in a line: cAMP accumulation in cultured primary striatal medium spiny neurons. The settings on record: Rattus norvegicus, Neuron. (cAMP levels reflect the balance of adenylyl cyclase and phosphodiesterase activity.)
The test system of experiment [6] is PDE10A. The settings on record: cited from earlier work.

On to `CCCOc1ccccc1-c1nc2nn[nH]c2c(=O)[nH]1` [Zaprinast, zaprinast], for which the EC200 (concentration giving a 2-fold increase in cGMP) is over 100 µM in experiment [1] (Rattus norvegicus, Neuron) and 98.3 ± 10.3 µM in experiment [1]. Besides, the “cAMP EC200/cGMP EC200” value in experiment [2] is 1.
By IC50 is commonly meant the midpoint of a concentration-inhibition curve. A low value points to greater potency. As to `COc1ccc(Cc2nccc3cc(OC)c(OC)cc23)cc1OC` [Papaverine], in the experiment with PDE10A [3], the mode of inhibition entry is “competitive inhibitor”. Further, the results for the IC50 with PDE1 and with PDE7 were 37 µM and 27 µM, respectively. The “cGMP levels elevated over cultures stimulated with SNP alone (maximal effect)” value in experiment [1] (100 μM papaverine, SNP 100 μM) is 5 fold. The “effect on cGMP levels in unstimulated cells” value in experiment [1] (cells unstimulated by SNP or forskolin) was “did not affect”.
Turning to `CC(C)Cn1c(=O)n(C)c(=O)c2[nH]cnc21` [IBMX, 3-isobutyl-1-methylxanthine], the EC200 (concentration giving a 2-fold increase in cGMP) was determined as 19 µM in experiment [1] (Rattus norvegicus, Neuron) and 19.5 µM in experiment [1]. The “cAMP EC200/cGMP EC200” value in experiment [2] was 1.5.
For the compound `CCCOc1ccccc1-c1nc2nn[nH]c2c(=O)[nH]1` [Zaprinast], the “effect on level of cGMP” value in experiment [4] is given as “did not quite double the level of cGMP”.
With `C=C[C@@]1(C)CC(=O)[C@]2(O)[C@@]3(C)[C@@H](O)CCC(C)(C)[C@@H]3[C@H](O)[C@H](OC(C)=O)[C@@]2(C)O1` [forskolin], in experiment [5] (read-out: increase over basal cAMP), the fold induction at 1 µM was 2 to 3. For the same compound, the activation at 1 µM in experiment [5] (read-out: per cent of the maximal cAMP response) was 20 to 25%.
What is called Km is the concentration of substrate that gives half-maximal velocity. Turning to `Nc1nc2c(ncn2[C@@H]2O[C@@H]3COP(=O)(O)O[C@H]3[C@H]2O)c(=O)[nH]1` [cGMP, cyclic guanine 3′5′-monophosphate], the “greater Vmax for cGMP over cAMP” value in the experiment on PDE10A [6] (Fujishige et al., 1999) is “approximately 5 fold”. For the same compound, the Km with PDE10A [6] (read-out: Km for cGMP) was 3 µM.
As to `COc1ccc(C2CNC(=O)C2)cc1OC1CCCC1` (stereo not shown) [Rolipram, rolipram], the EC200 (concentration giving a 2-fold increase in cGMP) in experiment [1] (Rattus norvegicus, Neuron) stood at 29.2 ± 10.3 µM. Moreover, the “concentration needed to double the rate of cGMP accumulation relative to cAMP EC200” value in experiment [1] (higher than cAMP EC200 of 2.5 μM) was 10 fold. For the same compound, the “cAMP EC200/cGMP EC200” value in experiment [2] turned out to be 0.09.

(Values after patent US20050026236A1, “PDE 10 cell-based assay and sequences” (Pfizer Inc, priority 2001, published 2005).)
